Results as given in ChEMBL document CHEMBL5380835, “Discovery of Clinically Used Octenidine as NRAS Repressor That Effectively Inhibits NRAS-Mutant Melanoma” (J Med Chem, 2023).
The source made the active and inactive calls. No cut-off for these calls is given here.

Tests used:
SK-MEL-2 [1] = assay: Cytotoxicity against human SK-MEL-2 cells expressing NRAS mutant assessed as cell growth inhibition incubated for 48 hrs by MTT assay; format: functional, cell-based; settings: SK-MEL-2, 48 h
[2] = Binding affinity to 5'-FAM-labeled to NRAS RNA G-quadruplex 5'-r(UGUGGGAGGGGCGGGUCUGGG)-3' (unknown origin) assessed as dissociation constant by fluorescence quenching assay
SK-MEL-2 [3] = assay: Cytotoxicity against human SK-MEL-2 cells assessed as cell growth inhibition incubated for 24 hrs by MTT assay; format: functional, cell-based; settings: SK-MEL-2, 24 h
SK-MEL-2 [4] = assay: Upregulation of NRAS mRNA level in human SK-MEL-2 cells at 1/2 times IC50 incubated for 24 hrs by RT-qPCR analysis; format: functional, cell-based
SK-MEL-2 [5] = assay: Effect on NRAS protein translation in human SK-MEL-2 cells at 1/2 times IC50 incubated for 24 hrs by Western blot analysis; format: functional, cell-based
SK-MEL-2 [6] = assay: Synergistic cytotoxicity against human SK-MEL-2 cells expressing NRAS mutant assessed as combination index measured for 48 hrs in presence of MEK-162 by MTT assay; format: functional
SK-MEL-2 [7] = assay: Synergistic cytotoxicity against human SK-MEL-2 cells expressing NRAS mutant assessed as combination index measured for 48 hrs in presence of LY3214996 by MTT assay; format: functional
SK-MEL-2 [8] = assay: Antiproliferative activity against human SK-MEL-2 cells assessed as inhibition of colony formation at 1.5 uM measured after 10 days by crystal violet staining based assay; format: functional, cell-based; settings: time 10.0 day
SK-MEL-2 [9] = assay: Synergistic cytotoxicity against human SK-MEL-2 cells expressing NRAS mutant assessed as combination index measured for 48 hrs in presence of Rapamycin by MTT assay; format: functional
SK-MEL-2 [10] = assay: Synergistic cytotoxicity against human SK-MEL-2 cells expressing NRAS mutant assessed as combination index measured for 48 hrs in presence of MK2206 by MTT assay; format: functional

Row | Structure (SMILES) | IC50 (SK-MEL-2 [1]) | Kd [2] | also measured
1 | CCCCCCCCN=c1ccn(CCCCCCn2ccc(=NCCCCCCCC)cc2)cc1 | 1770 nM | 320 nM | –
2 | CCCCCNc1cc[n+](CCCC[n+]2ccc(NCCCCC)cc2)cc1 | > 25000 nM | 1660 nM | –
3 | CCCCCCNc1cc[n+](CCCCCC[n+]2ccc(NCCCCCC)cc2)cc1 | 8610 nM | 740 nM | –
4 | CCCCCNc1cc[n+](CCCCCC[n+]2ccc(NCCCCC)cc2)cc1 | > 25000 nM | 1290 nM | –
5 | CCCCCCCCNc1cc[n+](CCCC[n+]2ccc(NCCCCCCCC)cc2)cc1 | 5610 nM | 1340 nM | –
6 | CCCNc1cc[n+](CCCC[n+]2ccc(NCCC)cc2)cc1 | – | 210 nM | –
7 | CCCNc1cc[n+](CCCCCC[n+]2ccc(NCCC)cc2)cc1 | – | 2990 nM | –
8 | CCCCCCNc1cc[n+](CCCC[n+]2ccc(NCCCCCC)cc2)cc1 | 17300 nM | 760 nM | –
9 | CCCNc1cc[n+](CCCCCCCCCC[n+]2ccc(NCCC)cc2)cc1 | 8360 nM | 1720 nM | –
10 | CCCCCNc1cc[n+](CCCCCCCCCC[n+]2ccc(NCCCCC)cc2)cc1 | 3000 nM | 1850 nM | –
11 | CCCCCCNc1cc[n+](CCCCCCCCCC[n+]2ccc(NCCCCCC)cc2)cc1 | 910 nM | 290 nM | –
12 | CN(C)c1ccc(C(=C2C=CC(=[N+](C)C)C=C2)c2ccc(N(C)C)cc2)cc1 [GENTIAN VIOLET] | 1360 nM | – | IC50 (SK-MEL-2 [3]): 2890 nM; Activity (SK-MEL-2 [4]): Active; Activity (SK-MEL-2 [5]): inactive
13 | NC1(c2ccc(-c3nc4ccn5c(=O)[nH]nc5c4cc3-c3ccccc3)cc2)CCC1 [MK-2206] | – | – | CI (SK-MEL-2 [6]): 0.5; CI (SK-MEL-2 [7]): 0.5
14 | Nc1ccc2cc3ccc(N)cc3nc2c1 [PROFLAVINE] | 1600 nM | – | IC50 (SK-MEL-2 [3]): 5310 nM; Activity (SK-MEL-2 [4]): Active; Activity (SK-MEL-2 [5]): inactive
15 | CO[C@H]1C[C@@H]2CC[C@@H](C)[C@@](O)(O2)C(=O)C(=O)N2CCCC[C@H]2C(=O)O[C@H]([C@H](C)C[C@@H]2CC[C@@H](O)[C@H](OC)C2)CC(=O)[C@H](C)/C=C(\C)[C@@H](O)[C@@H](OC)C(=O)[C@H](C)C[C@H](C)/C=C/C=C/C=C/1C [SIROLIMUS] | – | – | inhibition (SK-MEL-2 [8]): Active; CI (SK-MEL-2 [6]): 0.5; CI (SK-MEL-2 [7]): 0.5
16 | Cn1nccc1Nc1nccc(-c2cc3c(s2)C(C)(C)N(CCN2CCOCC2)C3=O)n1 [TEMUTERKIB] | – | – | inhibition (SK-MEL-2 [8]): Active; CI (SK-MEL-2 [9]): 0.5; CI (SK-MEL-2 [10]): 0.5
